The text below walks through data of patent US4194006A, “Therapeutic application of acetyl-d,l-carnitine and other acyl derivatives of d,l-carnitine” (priority 1977, dated 1980).

The test system of one test is isolated rat atrium. Nature of the test: antiarrhythmic effect, isolated rat atrium method of M. Libonati and G. Segre. Conditions: Rattus norvegicus; for inhibition at 0.1 µg/mL / activation at 0.1 µg/mL: 1·10^-4 g/lt; for inhibition at 0.1 µg/mL / inhibition at 0.01 µg/mL / inhibition at 0.001 µg/mL: decrease; for activation at 0.1 µg/mL / activation at 0.01 µg/mL / activation at 0.001 µg/mL: increase; for inhibition at 0.01 µg/mL / activation at 0.01 µg/mL: 1·10^-5 g/lt; for inhibition at 0.001 µg/mL / activation at 0.001 µg/mL: 1·10^-6 g/lt.

Test [1] deals with isolated rabbit hearts. The test is described as follows: coronary vasodilator effect: coronary flow, isolated heart (Langendorff). The protocol: (§1) The cardiokinetic effect on isolated heart was also investigated as follows. Rabbit hearts isolated by the Langendorff method were perfused with oxygenized ringer solution at 38.2° C. The isometric contractions, electrocardiogram and coronary flow were recorded using a "Battaglia-Rangoni" polygraph. By removing the oxygen from the perfusion fluid, metabolic damage was induced in the cardia muscle, up to an 80% reduction in the cardiac contractile force.
(§2) Under these conditions of prolonged anoxia the aerobic glycolysis of the myocardium is slowed down, accompanied by the storage of acid catabolites due to both the accumulation of pyruvic acid and its conversion to lactic acid which cannot be utilized because of the depression of pyridine enzymes, such as LDH (lactodehydrogenase). This has repercussions on the anaerobic glycolysis affecting an ever increasing number of enzymes, accompanied by a progressive and increasingly critical exhaustion of the myocardium. Thus a whole series of cardiac muscle fatigue levels occurs which can be observed by the behavior of the examined parameters, namely the contractile force, coronary flow, heart rate and cardiac rhythm. As soon as the contractile force was reduced by 80%, the perfusion fluid was once again oxygenized either without adding other compounds (controls) or with the addition of the compounds under examination.

Test [2] relates to isolated rabbit hearts. The test is described as follows: cardiokinetic effect on isolated heart (Langendorff): contractile force after anoxia, positive inotropic effect. The following applies: 10 minutes from interruption of anoxic period. As for the experimental part: as §1, §2
Table 3 below gives the percentage values of the contractile force of the heart, showing a positive inotropic effect, calculated after 10 minutes from the interruption of the anoxic period (myocardial restoration).

Another test deals with female rats. Nature of the test: antifatigue effect: rota-rod. The format is in vivo, rat. Conditions: Rattus norvegicus, ip, 0.25 h; for responders at 300 mg/kg: 300 mg/kg i.p.; for responders at 300 mg/kg / responders at 400 mg/kg / responders at 600 mg/kg: read-out: percentage of animals staying on the rota-rod more than 180 seconds; for responders at 400 mg/kg: 400 mg/kg i.p.; for responders at 600 mg/kg: 600 mg/kg i.p.; for responders at 0.25 mg/kg: read-out: percentage of animals staying on the rota-rod more than 180 seconds, 0.25 mg/kg i.p.; for responders at 0.5 mg/kg: read-out: percentage of animals staying on the rota-rod more than 180 seconds, 0.50 mg/kg i.p.; for responders at 1 mg/kg: read-out: percentage of animals staying on the rota-rod more than 180 seconds, 1.00 mg/kg i.p. The protocol:
The antifatigue effect was also examined with the following results. The antifatigue effect was investigated by administering the compounds of the formula (I) according to the present application to female rats intraperitoneally in saline solution and saline solution alone to the controls by the same route. Every 15 minutes (sessions) after treatment, the animals were placed on a 6 cm diameter rod, rotating at 16 r.p.m. The percentage of the animals capable of staying on the rota-rod for a duration of more than 180 seconds was then recorded.
(Falling from the rotarod earlier than controls is read as motor impairment.)

Where [3] appears, read: read-out: Mean percent variation versus controls: excitability (-%).
Setting [4] is: read-out: Mean percent variation versus controls: frequency max (-%).
Where [5] appears, read: read-out: Mean percent variation versus controls: refractory period (+%).
[6] abbreviates: read-out: Mean percent variation versus controls: rheobase (+%).
Where [7] appears, read: session 6 (every 15 minutes), * p < 0.05.

Read-outs that look alike come from different tables or passages of the source.

In the case of `CCCC(=O)OC(CC(=O)[O-])C[N+](C)(C)C` (racemic) [butyryl-d,l-carnitine], the results for the inhibition at 0.1 µg/mL in the test on isolated rat atrium (setting [3]) and with isolated rat atrium (setting [4]) were 63.7% and 62.3%, respectively. Moreover, the activation at 0.1 µg/mL with isolated rat atrium (setting [5]) was determined as 38%; in the test with isolated rat atrium (setting [6]), 55%. Moreover, the inhibition at 0.01 µg/mL is 31.9% in the test on isolated rat atrium (setting [3]) and 30.4% with isolated rat atrium (setting [4]). In addition, the activation at 0.01 µg/mL came to 25.9% with isolated rat atrium (setting [5]) and 40.8% in the test on isolated rat atrium (setting [6]). The inhibition at 0.001 µg/mL with isolated rat atrium (setting [3]) stood at 12.9%; in the test with isolated rat atrium (setting [4]), 24.8%. The activation at 0.001 µg/mL in the test with isolated rat atrium (setting [5]) turned out to be 18.2%; with isolated rat atrium (setting [6]), 28.3%. Further, the “Coronary flow, Mean ± S.E.” value in the test with isolated rabbit hearts [1] (1·10^-5 g/lt) is given as 90.12 ± 8.18%; with isolated rabbit hearts [1] (1·10^-6 g/lt), 74.01 ± 6.19%. In addition, the “Contractile force, Mean ± S.E.” value in the test on isolated rabbit hearts [2] (1·10^-5 g/lt) was determined as 51.5 ± 5.02%; with isolated rabbit hearts [2] (1·10^-6 g/lt), 30.6 ± 4.51%; with isolated rabbit hearts [2] (5·10^-6 g/lt), 35.6 ± 6.19%. Besides, the responders at 300 mg/kg turned out to be 0% in the test on female rats (session 1 (every 15 minutes)); 0% in the test with female rats (session 2 (every 15 minutes)); 0% in the test with female rats (session 3 (every 15 minutes)); 0% with female rats (session 4 (every 15 minutes)); 0% in the test on female rats (session 5 (every 15 minutes)); 10% in the test with female rats (session 6 (every 15 minutes)). The responders at 400 mg/kg in the test with female rats (session 1 (every 15 minutes)) came out at 0%; with female rats (session 2 (every 15 minutes)), 0%; in the test with female rats (session 3 (every 15 minutes)), 0%; in the test with female rats (session 4 (every 15 minutes)), 10%; with female rats (session 5 (every 15 minutes)), 10%; with female rats (setting [7]), 20%. Besides, the responders at 600 mg/kg in the test on female rats (session 1 (every 15 minutes)) came out at 0%; in the test with female rats (session 2 (every 15 minutes)), 0%; in the test on female rats (session 3 (every 15 minutes)) it was 10%; in the test with female rats (session 4 (every 15 minutes)), 20%; in the test on female rats (session 5 (every 15 minutes)) it was 20%; in the test on female rats (setting [7]) it was 40%.
Turning to `CC(N)Cc1ccccc1` (racemic) [d,l-amphetamine, reference compound], the responders at 0.25 mg/kg was determined as 0% in the test on female rats (session 1 (every 15 minutes)); 12.5% with female rats (session 2 (every 15 minutes)); 25% with female rats (session 3 (every 15 minutes)); 25% with female rats (session 4 (every 15 minutes)); 25% with female rats (session 5 (every 15 minutes)); 25% in the test on female rats (session 6 (every 15 minutes)). In addition, the responders at 0.5 mg/kg stood at 0% with female rats (session 1 (every 15 minutes)); 5.88% in the test on female rats (session 2 (every 15 minutes)); 11.8% in the test on female rats (session 3 (every 15 minutes)); 23.5% in the test with female rats (session 4 (every 15 minutes)); 29.4% in the test with female rats (session 5 (every 15 minutes)); 35.3% in the test on female rats (session 6 (every 15 minutes)). The responders at 1 mg/kg is 0% with female rats (session 1 (every 15 minutes)); 8.33% in the test on female rats (session 2 (every 15 minutes)); 25% in the test with female rats (session 3 (every 15 minutes)); 33.3% in the test with female rats (session 4 (every 15 minutes)); 58.3% with female rats (session 5 (every 15 minutes), * p < 0.05); 58.3% in the test on female rats (setting [7]).
On to `C=C[C@H]1C[N@@]2CC[C@H]1C[C@@H]2[C@@H](O)c1ccnc2ccc(OC)cc12` [Quinidine, reference compound], for which, in the test with isolated rat atrium (setting [3]), the inhibition at 0.1 µg/mL stood at 189%, the inhibition at 0.01 µg/mL is 23.4% and the inhibition at 0.001 µg/mL amounted to 16.9%. In addition, in the test with isolated rat atrium (setting [4]), the inhibition at 0.1 µg/mL was determined as 71.2%, the inhibition at 0.01 µg/mL was 24.1% and the inhibition at 0.001 µg/mL worked out at 11.7%. Also, in the test with isolated rat atrium (setting [5]), the activation at 0.1 µg/mL came to 57.4%, the activation at 0.01 µg/mL came to 20.4% and the activation at 0.001 µg/mL was 3.12%. In the test with isolated rat atrium (setting [6]), the activation at 0.1 µg/mL amounted to 54.1%, the activation at 0.01 µg/mL turned out to be 25.1% and the activation at 0.001 µg/mL was 7.14%.
